Measured values reported in patent US10232043B2, “Photoactivated molecules for light-induced modulation of the activity of electrically excitable cells and methods of using the same” (UNIVERSITY OF SOUTHERN CALIFORNIA, priority 2015, dated 2019).
Entries after “also recorded” stand apart in the source; their conditions may differ.

Legend:
HEK293T cells = assay: Effect of PF6:Cl counter ion ratio of Rubpy-C17 on HEK293T cells; type: cell-based; conditions: for membrane incorporation: 10 minutes; for Comments (compound stability): degradation seen after two months
Protocol: In some embodiments, the 20 mg of Rubpy-C17 is stored in −20° C. with desiccant in the dark. […] 253 μl of DMSO is then added into the original bottle containing Rubpy-C17 to make 100 mM stock solution. In some embodiments, the stock solution is aliquot and stored in −20° C. with desiccant in the dark.
In some examples, on the day before or on, the same day of the experiment, the following 2.5 mM external solution is prepared using the following steps. The external solution is warmed up to 37° C. For […] of the external solution, 0.176 grams of absorbic acid was added. Another 240 μL 5M NaOH was added to adjust the pH to between about 7.2-7.4. The absorbic solution can then be filtered through a 0.2 μm filter. The solution is then stored in the dark in 4° C. In some examples, the solution must be used within one week.
The 100 mM of Rubpy solution is first thawed from −20° C. 100 mM Rubpy is then diluted to 10 mM Rubpy: 2 μL 100 mM Rubpy+18 μL DMSO. In some examples, this is vortexted to mix and then centrifuged down with a small bench-top. The culture, medium is aspirated and the cells are rinsed with external solution several times. The external solution can then be aspirated. In some examples, enough of the external solution is left on the cells to prevent it from drying. 500 μL of external solution with 2.5 mM of ascorbic acid can then be added.
In some examples, 1 μL of 10 mM of Rubpy to […] of external solution with 2.5 mM ascorbic acid and mixed well. This should produce a final concentration of 10 μM of Rubpy with 0.1% DMSO. This mixed solution is then added to the above referenced cells and incubated for 10 minutes.
The solution can then be aspirated from the plate and rinsed with regular external solution several times. 2 mL of external solution is added to 2.5 mM ascorbic acid for recording. For each plate, a baseline control is taken by recording the first cell before performing any light-stimulating protocol. The light-stimulus can include 10-40 s in duration and bandpassed at 455-495 nm (blue light).
As discussed above, the mixture a 10 μM of RubpyC17 solution was placed in 10 HEK293T cells.

HEK cells = assay: Membrane incorporation of Rubpy-C17 analogues; type: cell-based; conditions: FIGS. 6A-6C, 7A-7B
Source text: In some examples, RubpyC17 can be changed to provide a non-toxic, faster, and highly reversible system that imparts light sensitivity in multiple biological systems. In some embodiments, changing of bipyridine substituents (as shown in as illustrated in FIG. 3) can result in a Ru^3+/2+ reduction potential dynamic range of several hundred millivolts. […] In some examples, the carboxylic acid substituents probe the mechanistic role of charge in the photovoltaic nanoswitch system in addition to the role of the reduction potential. FIGS. 5A-5D illustrates an embodiment of various substituents in place of RubpyC17 in HEK cells. For example, FIG. 5A illustrates TMbpyRubpyC17(PF6) substituted for RubpyC17; FIG. 5B illustrates TMbpyRubpyC17(Cl) substituted for RubpyC17; FIG. 5C illustrates COOHbpyRubpyC17(Na) substituted for RubpyC17; and FIG. 5C illustrates COOHbpyRubpyC17(tBu4N+) substituted for RubpyC17.
In some examples, the RubpyC17 molecule can be configured for non-specific targeting and optimized membrane incorporation of photoactive molecular artificial retinas (“MARs”).
In some embodiments, membrane incorporation can be an important characteristic of the current system. In some embodiments, changing the counter ion identity of Rubpy-C17 can help to change membrane incorporation properties. […] FIG. 7C illustrates the effect that a treatment of 1 μM of Rubpy-Oleic Acid has on HEK cells while FIG. 7D illustrates the effect that a treatment of 10 μM of Rubpy-Linoleic Acid has on HEK cells.

[1] = Time-resolved luminescence and electron transfer of D-B-A complex; type: physicochemical; conditions: degassed dichloromethane, excited at 355 nm, monitored at 560 nm
Protocol: Time-resolved emission spectroscopy was used to characterize the MLCT excited state of the D-B-A complex (see FIGS. 24A and 24B). Luminescence decay kinetics were recorded in degassed dichloromethane. The D-B-A complex was excited at 355 nm with an 8-ns laser pulse and luminescence was monitored at 560 nm. […] For comparison, the MLCT lifetime of the reference complex, [Re(CO)3(bpy)(py)]+, determined under identical experimental conditions, is 550 ns.
Self-association often leads to enhanced quenching, due to the formation of aggregates with short intermolecular donor-acceptor distances.
While the rate of intramolecular electron transfer is concentration independent, intermolecular quenching processes vary predictably with concentration. As such, it is possible to separate the two quenching mechanisms and obtain rate constants for each. Time-resolved luminescence measurements at a series of D-B-A concentrations allow a second order intermolecular quenching rate to be determined. As the concentration was increased, shorter lifetimes were recorded in both dichloromethane and acetonitrile. […]
Intramolecular electron transfer may also proceed through a through-space coupling mechanism. […] If β values in this range are used, the through-solvent intramolecular electron transfer rate is predicted to fall between 10^4 and 10^6 s^−1, which is competitive with calculated through-bond tunneling rates.

chromaffin cells = assay: Cell-attached patch test for membrane perforation; type: cell-based, mouse; conditions: in patch pipette, RubpyC17 18 μM, 10 min, amphotericin B within 5 min
Source text: FIGS. 21A-21H depict data from various experiments related to characteristics of RubpyC17-loaded cells. […] Inset images shown to the right of trace confirmed proper integration of RubpyC17 in patched cells. FIGS. 21C-21E show the light-induced action potential firing in chromaffin cells was not due to biophysical changes in voltage-gated ion channels as there were no significant changes in current-voltage relationships (21C-21D) nor in steady-state activation curve (21E) in RubpyC17-loaded chromaffin cells before (open circle) or during (open circle) light illumination. […] Peak inward currents from each stimulation jump were plotted against corresponding stimulating voltages (n=6). […] Data from representative cell is shown (n=5). […] Currents resulting from capacitor-like behavior of chromaffin cell membranes during hyperpolarizing jumps to −85 mV from a resting membrane potential of −80 mV were recorded 5 min following giga-seal formation for amphoterecin B (bottom trace) or 10 min following giga-seal formation for RubpyC17 (top trace).
Finally, to test whether illumination of RubpyC17 incorporated in cell membranes causes nonspecific membrane poration or other damage, 18 μM RubpyC17 was loaded inside a patch pipette and attached to a cell (gigaseal formation) in the cell-attached configuration. This is the same configuration used routinely for perforated-patch recording. […]

Nav1.6 = Nav1.6 (Homo sapiens, UniProt Q9UQD0); conditions: extracellular loop S1-S2 and S3-S4 in domain II; cited from earlier work
Sequence of Nav1.6 (Q9UQD0 whole entry, the tested form may be a part): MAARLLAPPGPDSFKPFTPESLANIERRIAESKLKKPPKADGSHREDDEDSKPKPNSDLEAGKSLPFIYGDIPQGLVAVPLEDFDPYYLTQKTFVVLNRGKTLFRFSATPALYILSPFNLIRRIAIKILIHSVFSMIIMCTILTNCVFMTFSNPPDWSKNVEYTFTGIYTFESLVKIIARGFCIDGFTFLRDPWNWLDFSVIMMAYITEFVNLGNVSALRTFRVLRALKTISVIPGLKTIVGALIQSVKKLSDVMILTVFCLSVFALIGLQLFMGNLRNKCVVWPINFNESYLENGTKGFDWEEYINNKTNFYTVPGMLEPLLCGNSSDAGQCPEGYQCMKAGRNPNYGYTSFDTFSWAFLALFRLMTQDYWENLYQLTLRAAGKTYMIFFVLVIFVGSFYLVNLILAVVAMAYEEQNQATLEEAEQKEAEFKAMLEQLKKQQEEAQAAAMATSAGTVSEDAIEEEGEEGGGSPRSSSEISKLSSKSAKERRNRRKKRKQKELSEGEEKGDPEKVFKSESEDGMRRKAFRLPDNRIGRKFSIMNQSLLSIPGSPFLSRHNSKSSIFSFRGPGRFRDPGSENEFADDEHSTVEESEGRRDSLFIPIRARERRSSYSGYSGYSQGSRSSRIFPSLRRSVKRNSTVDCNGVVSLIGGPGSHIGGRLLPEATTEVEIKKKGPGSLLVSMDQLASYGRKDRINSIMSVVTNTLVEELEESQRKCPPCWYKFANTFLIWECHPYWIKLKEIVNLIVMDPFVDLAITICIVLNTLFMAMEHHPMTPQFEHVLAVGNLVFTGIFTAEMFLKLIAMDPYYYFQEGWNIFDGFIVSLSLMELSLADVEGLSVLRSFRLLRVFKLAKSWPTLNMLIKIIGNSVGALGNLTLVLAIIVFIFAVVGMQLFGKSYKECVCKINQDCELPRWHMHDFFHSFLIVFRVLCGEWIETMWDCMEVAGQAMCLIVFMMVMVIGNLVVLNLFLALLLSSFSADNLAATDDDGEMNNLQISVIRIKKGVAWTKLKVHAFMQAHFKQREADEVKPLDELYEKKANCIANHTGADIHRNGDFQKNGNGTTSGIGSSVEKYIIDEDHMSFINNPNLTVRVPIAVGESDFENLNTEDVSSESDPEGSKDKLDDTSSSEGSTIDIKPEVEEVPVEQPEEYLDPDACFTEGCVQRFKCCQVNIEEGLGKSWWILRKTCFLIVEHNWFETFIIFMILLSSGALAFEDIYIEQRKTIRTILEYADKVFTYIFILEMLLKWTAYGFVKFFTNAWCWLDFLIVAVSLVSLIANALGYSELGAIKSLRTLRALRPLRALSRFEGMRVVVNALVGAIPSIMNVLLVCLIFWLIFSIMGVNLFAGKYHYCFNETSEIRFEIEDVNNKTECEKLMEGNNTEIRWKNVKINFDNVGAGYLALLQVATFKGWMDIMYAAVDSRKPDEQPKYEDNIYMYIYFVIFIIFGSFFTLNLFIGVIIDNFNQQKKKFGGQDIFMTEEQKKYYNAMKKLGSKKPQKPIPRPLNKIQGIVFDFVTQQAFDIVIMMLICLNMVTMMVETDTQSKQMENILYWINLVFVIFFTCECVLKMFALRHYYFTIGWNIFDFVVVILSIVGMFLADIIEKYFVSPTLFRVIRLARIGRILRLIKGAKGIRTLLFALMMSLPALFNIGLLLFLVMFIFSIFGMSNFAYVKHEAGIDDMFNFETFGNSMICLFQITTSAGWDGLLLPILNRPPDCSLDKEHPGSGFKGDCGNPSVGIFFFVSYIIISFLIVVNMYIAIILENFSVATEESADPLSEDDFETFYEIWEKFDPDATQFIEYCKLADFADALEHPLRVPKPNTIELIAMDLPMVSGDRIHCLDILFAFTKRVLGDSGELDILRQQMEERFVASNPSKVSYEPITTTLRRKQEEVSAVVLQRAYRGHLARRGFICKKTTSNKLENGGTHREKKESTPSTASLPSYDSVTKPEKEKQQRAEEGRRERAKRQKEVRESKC

With CCCCCCCCCCCCCCCCCc1ccnc(-c2cc(C)ccn2)c1.[Cl-].[Cl-].[Ru+2].c1ccc(-c2ccccn2)nc1.c1ccc(-c2ccccn2)nc1 [PF6:Cl 0:1] the “Cell Death” value (HEK293T cells; 10 μM, HEK293T cells) was “cell death was observed”, the “membrane incorporation” value (HEK293T cells; 10 μM, HEK293T cells) was “even incorporation” and the “membrane incorporation” value (HEK293T cells; 10 μM, HEK293T cells, listed as Rubpy-C17 with only CL Counter ions) was “good membrane incorporation was initially observed”. For the same compound, the “Comments (compound stability)” value (HEK293T cells) was “subsequent degradation was observed after two months; also recorded: Unstable,”, the “Comments (compound stability)” value (HEK293T cells; listed as Rubpy-C17 with only CL Counter ions) was “compound degradation was seen subsequently after two months” and the membrane incorporation (HEK cells) was “exceptional membrane incorporation”.
In the case of CCCCCCCC/C=C\CCCCCCCC(=O)Nc1cc2cccnc2c2ncccc12.[Ru+2].c1ccc(-c2ccccn2)nc1.c1ccc(-c2ccccn2)nc1 [Ruphen-C18:1], the membrane incorporation (HEK cells) is reported as “exceptional membrane incorporation; also recorded: excellent membrane incorporation”.
With CCCCC/C=C\C/C=C\CCCCCCCC(=O)Nc1cc2cccnc2c2ncccc12.[Ru+2].c1ccc(-c2ccccn2)nc1.c1ccc(-c2ccccn2)nc1 [Ruphen-C18:2] the membrane incorporation (HEK cells) was “excellent membrane incorporation”.
With [C-]#[O+].[C-]#[O+].[C-]#[O+].[Re+].c1ccc(-c2ccccn2)nc1.c1ccncc1 [[Re(CO)3(bpy)(py)]+] the “luminescence (MLCT) lifetime” value [1] was 550 ns.
In the case of C[C@@H]1[C@H](O)[C@@H](C)/C=C/C=C/C=C/C=C/C=C/C=C/C=C/[C@H](O[C@@H]2O[C@H](C)[C@@H](O)[C@H](N)[C@@H]2O)C[C@@H]2O[C@](O)(C[C@@H](O)C[C@@H](O)[C@H](O)CC[C@@H](O)C[C@@H](O)CC(=O)O[C@H]1C)C[C@H](O)[C@H]2C(=O)O [amphotericin B, reference compound], the “capacitive charging transient (membrane perforation)” value (chromaffin cells) is reported as “sizable capacitive charging transient”.
With CCCCCCCCCCCCCCCCCc1ccnc(-c2cc(C)ccn2)c1.Cc1cnc(-c2cc(C)c(C)cn2)cc1C.Cc1cnc(-c2cc(C)c(C)cn2)cc1C.[Ru+2] [tetramethyl-substituted bpy Rubpy-C17] the membrane incorporation (HEK cells) was “does not evenly incorporate”.
For CssII, the binding affinity (Nav1.6) is listed as “nanomolar affinity”.
